Reference: US7939509B2, “Partial and full agonists of A1 adenosine receptors” (Gilead Sciences, Inc., priority 2002, dated 2011)

What was measured:
normal rats = assay: Triglyceride production after Triton WR 1339 injection in rats; type: in vivo, rat
Method: FIG. 3 graphs the time-dependent increase of TG caused by Triton […] in the absence or presence of Compound A as described in Example 31. After a 4 hour fast, rats received either vehicle or Compound A (5 mg/kg) via SC injection. After 5 minutes, Triton (400 mg/kg) was given as a slow intravenous bolus. Data are presented as ±SEM of values from 7-8 animals. Slope of the lines (determined by linear regression analysis) was 5.6±0.1 and 3.8±0.2 for vehicle and Compound A groups, respectively. Data were analyzed using 2 way ANOVA followed by Bonferroni's post hoc test.
The anti-lipolytic effects of Compound A were studied in awake rats. Animals were fasted overnight before experimental use. On the day of the experiment, animals were put in metabolic cages and left undisturbed to acclimate to the environment for 1-2 hrs. An infusion set (21 G×¾″, 0.8×19 mm U.T.W., 3½″, 9 cm tubing, volume 0.15 ml) was connected to the arterial catheter for blood sampling. A 1% sodium citrate saline solution was used to flush the lines. A pre-treatment blood sample was obtained from each animal to determine baseline values for FFA and TG. Compound A was given via oral gavage, sc injection, iv injection, or iv infusion, as described, for each different series of experiments. Blood samples were collected into serum separator tubes (Becton Dickinson, Franklin Lakes, N.J.) at pre-determined times, Blood was allowed to clot, and then centrifuged at 8000 rpm for 4 min at 4° C. The serum was stored at −80° C. and was thawed at 4° C. for determinations of FFA and TG contents.
Compound A was synthesized by the Department of Medicinal and Bio-Organic chemistry of CV Therapeutics, Inc. Sodium citrate and Triton WR1339 were purchased from Sigma (St. Louis, Mo.). […] Serum FFA and TGs were measured using commercial kits from Wako Chemicals, Richmond, Va. Glucose and Insulin were measured using commercial kits from Wako Chemicals USA (Richmond, Va.).
To further investigate the mechanism of the decrease in TG levels by Compound A, total TG production was measured in normal rats. […]

Sprague-Dawley rats = assay: Acute effect on insulin, FFA and TG in rats fed chow or high fat diet for 2 weeks; type: in vivo, rat; settings: 1 mg/kg oral gavage, 4 hr fast
Method: FIG. 8 graphically illustrates the time-course of the effect of Compound A on serum (A) insulin, (B) free fatty acids (FFA), and (C) triglycerides (TG) in rats fed normal diet (ND) and high fat diet (HFD) for 2 weeks as discussed in Example 32. Animals were fasted for four hours before the experiment. Compound A was administered via oral gavage at a dose of 1 mg/kg. Values represent mean±SEM from number of animals indicated in the parenthesis for each group.
All experimental procedures were performed under a protocol approved by the IACUC (CV Therapeutics, Inc.) and in accordance with the recommendations set forth in the Guide for the Care and Use of Laboratory Animals published by the National Research Council. Male Sprague-Dawley rats (225-250 gm) with either one or two indwelling catheters (carotid and jugular) were obtained from Charles River Laboratories (Wilmington, Mass.). Animals were housed 1 per cage in a room maintained on a 12 h light/dark cycle (light on 06.00-18.00 h) under constant temperature (22-25° C.) and with ad libitum access to food and water. Rats on normal diet (Chow) were fed standard laboratory chow (12% fat, 60% carbohydrate, and 28% protein) throughout the study, while animals in the high fat (HF) diet group were given a diet (TD88137 from Harlan Teklad, Madison, Wis.) containing 42% fat, 43% carbohydrate, and 15% protein.
The anti-lipolytic effects of Compound A (see chemical name below) were studied in awake rats. On the day of the experiment, animals were put in metabolic cages and left undisturbed to acclimate to the environment for 1-2 hrs. An infusion set (21 G×¾″, 0.8×19 mm U.T.W., 3½″, 9 cm tubing, volume 0.15 ml) was connected to the arterial catheter for blood sampling. A 1% sodium citrate saline solution was used to flush the lines. A pre-treatment blood sample was obtained from each animal to determine baseline values for glucose, insulin, FFA and TG. Blood samples were collected into plasma and serum separator tubes (Becton Dickinson, Franklin Lakes, N.J.) at pre-determined time points. Oral glucose tolerance test (OGTT) was performed by giving 2 gm/kg of glucose load. Compound A was given via an oral gavage 15 minutes prior to the glucose load. For chronic experiments Compound A was administered twice a day via subcutaneous injection at a dose of 5 mg/kg for 2 weeks. An OGTT was performed at the end of two weeks at ˜2 hrs after the last dose of Compound A.
Compound A (2-{6-[((1R,2R)-2-hydroxycyclopentyl)amino]purin-9-yl}(4S,5S,2R,3R)-5-[(2-fluorophenylthio)methyl]oxolane-3,4-diol) was synthesized by the Department of Medicinal and Bio-Organic chemistry of CV Therapeutics, Inc. Sodium citrate was purchased from Sigma (St. Louis, Mo.). PEG 400 was purchased from VWR (by EMD Chemicals). Triton WR1339 was diluted in warm saline (˜37° C.) with frequent vortexing. Compound A was dissolved in. PEG 400, and then diluted with distilled water to make a 20% PEG drug solution. FFA and TGs were measured using commercial kits from Wako Chemicals, (Richmond, Va.). Glucose and Insulin were measured using commercial kits from Thermo Electron Corporation (Waltham, Mass.) and Crystal Chem (Downers Grove, Ill.), respectively.
All data are reported as mean±SEM. Statistical analysis of data from experiments with 2 treatment groups was performed using the unpaired Student's t-test. One way analysis of variance (ANOVA) followed by Newman-Keuls posthoc analysis was used for multiple comparisons. Data form OGTT was analyzed by calculating area under the curve (AUC) using prism graphpad software. Differences between/among treatment groups were considered to be significant when the probability of their occurrence by chance alone was <0.05.

SMILES: O[C@@H]1[C@H](O)[C@@H](CSc2ccccc2F)O[C@H]1n1cnc2c(N[C@@H]3CCC[C@H]3O)ncnc21 [Compound A, 2-{6-[((1R,2R)-2-hydroxycyclopentyl)amino]purin-9-yl}(4S,5S,2R,3R)-5-[(2-fluorophenylthio)methyl]oxolane-3,4-diol]
- increase in serum TG caused by Triton vs vehicle-treated animals (normal rats; 180 minutes post-treatment, p<0.01): significantly less
- slope of the time-dependent TG increase caused by Triton (linear regression) (normal rats; FIG. 3 legend: 5 mg/kg SC, Triton 400 mg/kg iv, 4 hour fast, vehicle 5.6±0.1): 3.8±0.2
- TG accumulation, slope of the line (linear regression) (normal rats; text: Triton 600 mg/kg, vehicle printed as 3.8±0.17, p<0.001): 5.6 ± 0.12 mg/dL/min
- decrease in FFA concentration from 0 to 30 min (Sprague-Dawley rats; Chow rats): 0.24 ± 0.07 mM
- decrease in TG concentration from 0 to 30 min (Sprague-Dawley rats; Chow rats): 17 ± 3 mg/dL
- decrease in insulin concentration from 0 to 30 min (Sprague-Dawley rats; Chow rats): 0.8 ± 0.32 ng/mL
- decrease in FFA concentration from 0 to 30 min (Sprague-Dawley rats; HF rats): 0.65 ± 0.1 mM
- decrease in TG concentration from 0 to 30 min (Sprague-Dawley rats; HF rats): 46 ± 15 mg/dL
- decrease in insulin concentration from 0 to 30 min (Sprague-Dawley rats; HF rats): 2.37 ± 0.85 ng/mL
